Article PMC12040169 (PLOS Biology, 2025)

Assay: in vitro
Details: human, hela cells, % viability

SMILES	viability at 28.5 h, 10 µM [%]
c1ccc(CC2CCN(CCC(c3ccccc3)c3ccccc3)CC2)cc1 [CBK126389]	102
CCOC(=O)Cn1ccc2ccnc(-c3cccs3)c21 [CBK285200]	107
CC(C)Cn1c(SCC(=O)N2CCNC2=O)nnc1-c1ccco1 [CBK295175]	106
COC(=O)c1c(NC(=O)Cn2ccc([N+](=O)[O-])n2)sc2c1CCCC2 [CBK268960]	116
O=C(CN1CCC(c2ccccc2F)CC1)N1CCOCC1 [CBK283548]	89.3
O=C(c1ccco1)N1C2CCC1Cn1c(nc3ccccc3c1=O)C2 (stereo not shown) [CBK284452]	89.1
O=C(O)Cn1c2ccccc2c2cc([N+](=O)[O-])ccc21 [CBK261732]	82.6
Cc1cccn2cc(CCNC(=O)N3CCOCC3C3CC3)nc12 (stereo not shown) [CBK304033]	104
CC(C)c1cc(C(=O)N(Cc2ccccn2)CC2CCCO2)on1 (stereo not shown) [CBK306579]	95.3
COc1cc(-c2cn3ccnc3c(NCC3CCOCC3)n2)cc(OC)c1OC [CBK037284]	96.8
COc1ccc(OCCCCCN2CCC3(CC2)OCCc2c3[nH]c3ccccc23)cc1 [CBK113517T]	0
Cc1cc(S(=O)(=O)N2CCCC2)ccc1OCC(=O)NCc1ccncc1 [CBK269886]	91.3
c1ccc(OCCOc2nccnc2-c2cc3ccccc3s2)cc1 [CBK106787]	92.3
COc1ccc([C@H]2CN(Cc3ccccc3)[C@@H]3CCN(C(=O)c4ccccc4)C[C@H]23)cc1 [CBK285550]	86.6
COc1ccc(CCOc2nccnc2-c2ccc(OC(F)(F)F)cc2)cc1 [CBK106846]	109
COc1ccc(C(C)NC(=O)CCn2ccc3ccncc32)cc1 (stereo not shown) [CBK284798]	92.4
Cc1ccc(OCCC(=O)NCC(c2cccs2)N2CCOCC2)cc1 (stereo not shown) [CBK305976]	90.9
c1ccc2c(c1)nnn2CNCn1nnc2ccccc21 [CBK261114]	85.4
Cc1cc2nc(SCCO)[nH]c2cc1C [CBK027546]	94.1
FC(F)(F)c1nc2ccccc2nc1SCc1cccs1 [CBK103728]	105
CN(Cc1ccccc1)c1nccnc1-c1ccsc1 [CBK037394]	91
Cn1cc(C2CCCCCN2C(=O)c2cc(C3CC3)on2)cn1 (stereo not shown) [CBK285301]	104

SMILES	viability at 28.5 h, 10 µM [%]
O=C(c1cccs1)N1CCC(c2n[nH]c3ncccc23)CC1 [CBK284904]	92.3
COc1cc(C(=O)Nc2ccc(-c3nc4ncccc4o3)cc2)ccc1OCc1ccc(Cl)cc1 [CBK033914]	92.7
COc1ccc(/C=C/C(=O)O)cc1S(=O)(=O)N1CCCCCC1 [CBK263565]	87.8
O=C(Nc1nc(-c2ccco2)c(-c2ccncc2)s1)C1CC1 [CBK284494]	87.4
O=C(NCCn1nc(-c2cccs2)ccc1=O)c1ccccc1F [CBK283835]	86.1
Cc1cc(C)n2nc(CCCOC(=O)c3ccn(C(C)C)n3)nc2n1 [CBK305272]	112
COc1ccc([C@@]23CC[C@@H](NC(=O)Nc4ccon4)C[C@@H]2N(C)CC3)cc1OC [CBK051069T]	97
O=C(/C=C/c1cccc([N+](=O)[O-])c1)NCCN1CCOCC1 [CBK262283]	90.5
COc1ccc2ccccc2c1[S+]([O-])NC1CCCCC1 (stereo not shown) [CBK022400]	80.7
COc1cc2c(cc1OC)C(CCN1CCN(c3ccccc3C)CC1)OCC(C)(C)C2 (stereo not shown) [CBK024043C]	98.5
CN(C)c1cccc(-c2cncc(NCCCO)n2)c1 [CBK065619]	102
CCOC(=O)c1sc(NC(=O)CCNC(=O)c2ccccc2C(=O)O)c(C#N)c1C [CBK295152]	96.1
Cc1ccc(N2C(=O)C(CC(=O)Nc3cccc(F)c3)N(CCc3ccncc3)C2=O)cc1 (stereo not shown) [CBK268891]	96.5
CCCn1cc(NC(=O)C2(c3ccccc3)CCOCC2)ccc1=O [CBK304905]	90.1
COc1ccc(CN2CCCN(C(=O)c3ccnc(Cl)c3)CC2)cc1 [CBK305364]	85.4
CN(C)c1ccc(CNC(=O)Cn2nc(C(=O)O)c3ccccc3c2=O)cc1 [CBK295330]	105
CCOC(=O)c1c(NC(=O)Cn2cnc([N+](=O)[O-])n2)sc2c1CCCC2 [CBK262583]	88.4
N#CCC(=O)N1CCN(Cc2ccc3c(c2)OCO3)CC1 [CBK074447]	88.7
c1cncc(CCNc2nccnc2-c2cccnc2)c1 [CBK037380]	93
CC(NC(C)(C)C)C(O)COc1ccc(Cl)c2c1C1CCC2CC1 (stereo not shown) [CBK017752C]	89.6
COc1ccc(C(=O)Nc2cccnc2N2CCNCC2)cc1 [CBK029421T]	102
O=C(O)c1ccc(NS(=O)(=O)c2ccc3c(c2)OCCO3)cc1 [CBK296129]	108

SMILES	viability at 28.5 h, 10 µM [%]
Fc1ccc(OCc2nnn[nH]2)c(F)c1 [CBK269473]	99.9
O=C(c1ccccn1)C1CCCN(c2nccc(CCC(F)(F)F)n2)C1 (stereo not shown) [CBK306775]	109
Cc1oc(C(C)(C)C)cc1C(=O)Nc1ccc(C(F)(F)F)cc1 [CBK057251]	87
O=C(CCc1ccccc1)Nc1cccc(N2C(=O)C3C4c5ccccc5C(c5ccccc54)C3C2=O)c1 (stereo not shown) [CBK265409]	91.1
CN1C(=O)COc2ccccc2CCCC[C@@H]2[C@H]1CCCN2C(=O)CNS(C)(=O)=O [CBK292118]	113
O=c1c2c([nH]c3nc(NCc4ccc(OCc5ccccc5)cc4)nn13)CCC2 [CBK268044]	96.9
O=c1[nH]c(=O)c2cc(S(=O)(=O)Nc3cccc(CCc4ccncc4)c3)ccc2[nH]1 [CBK286397]	103
COc1ccc2[nH]cc(CCNC(=O)CC(C)O)c2c1 (stereo not shown) [CBK116201]	106
CNC(=O)NC(=O)C1CCN(CCc2cccs2)CC1 [CBK034960]	106
CC(=O)Nc1ccc(OCC(O)Cn2c(CO)nc3ccccc32)cc1 (stereo not shown) [CBK304549]	81.3
O=C(Cc1c[nH]c2ccccc12)N1Cc2ccccc2C1 [CBK200321]	103
O=C(NCc1cccnc1)c1ccccc1NS(=O)(=O)c1ccc(F)cc1 [CBK269754]	70.8
O=c1c2ccccc2nc(COc2ccccc2)n1O [CBK288482]	108
CCCn1cnc2cc(NC(=O)Cn3cccc(C(=O)Nc4ccc(F)cc4)c3=O)ccc21 [CBK286060]	84.7
O=S(=O)(NCc1nc(-c2ccccc2)no1)c1ccc(F)cc1 [CBK268198]	93.3
CCn1c(SCc2nc(-c3ccc(Br)cc3)no2)nnc1-c1c[nH]c2ccccc12 [CBK268668]	94.3
COc1c(Cl)cc(Cl)cc1CNCc1cccnc1 [CBK270142C]	94.2
Cc1nnc(SCC(=O)Nc2nsc(-c3ccc(Cl)cc3)n2)s1 [CBK266525]	91.5
COCCN1C(=O)C2(CC(=O)N(CC3CCCCC3)C2=O)c2ccccc21 (stereo not shown) [CBK075355]	97.8
COc1cc2c(cc1OC)C(c1ccc(C(=O)O)cc1)NCC2 (stereo not shown) [CBK286738]	90.2
